The record followed here is patent US8999981B2, “3-amido-pyrrolo[3,4-C]pyrazole-5(1H, 4H,6H) carbaldehyde derivatives” (Pfizer Inc., priority 2007, dated 2015).

Chain of Protein Kinase C beta 2 (PKCβII) (P05771 other isoform, or with tags, fused parts or gaps): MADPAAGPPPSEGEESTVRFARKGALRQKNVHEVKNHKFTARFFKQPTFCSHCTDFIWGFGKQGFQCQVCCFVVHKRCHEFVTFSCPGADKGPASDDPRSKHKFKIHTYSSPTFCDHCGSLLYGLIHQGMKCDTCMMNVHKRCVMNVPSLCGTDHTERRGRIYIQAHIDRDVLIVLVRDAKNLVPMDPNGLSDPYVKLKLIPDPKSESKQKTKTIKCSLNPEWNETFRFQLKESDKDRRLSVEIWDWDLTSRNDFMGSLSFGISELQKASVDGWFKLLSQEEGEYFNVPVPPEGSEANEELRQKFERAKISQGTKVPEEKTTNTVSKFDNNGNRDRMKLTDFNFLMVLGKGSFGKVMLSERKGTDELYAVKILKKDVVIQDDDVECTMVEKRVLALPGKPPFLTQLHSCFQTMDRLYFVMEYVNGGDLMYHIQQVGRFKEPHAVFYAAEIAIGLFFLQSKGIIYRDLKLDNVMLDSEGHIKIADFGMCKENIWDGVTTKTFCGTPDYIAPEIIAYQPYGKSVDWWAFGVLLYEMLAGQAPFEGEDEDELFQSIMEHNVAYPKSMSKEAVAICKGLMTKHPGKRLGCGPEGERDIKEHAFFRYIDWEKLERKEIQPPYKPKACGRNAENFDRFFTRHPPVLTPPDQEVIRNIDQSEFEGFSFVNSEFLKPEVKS

The experiment addresses Protein Kinase C beta 2 (PKCβII) (Homo sapiens (Human), UniProt P05771). The experiment is described as follows: PKCβII coupled PK/LDH spectrophotometric kinase assay. Type of experiment: biochemical. Particulars: apparent Ki, ATP-competitive model (Morrison equation); 0.1 mM ATP, 30° C.; read-out: PKCb Ki.
As for `C[C@H]1CN2CCC[C@H]2CN1C(=O)N1Cc2c(NC(=O)c3cc(C(C)(C)C)nn3C)n[nH]c2C1(C)C` [Example E10], the Ki stood at 10.6 nM.

In the case of `Cc1nc(C)c(C(=O)Nc2n[nH]c3c2CN(C(=O)N2C[C@@H]4CCCN4C[C@@H]2C)C3(C)C)o1` [Example E11], the Ki stood at 28.9 nM.

Regarding `C[C@H]1CN2CCC[C@H]2CN1C(=O)N1Cc2c(NC(=O)c3cc(C4CC4)on3)n[nH]c2C1(C)C` [Example E12], the Ki is 58.6 nM.

For `C[C@H]1CN2CCC[C@H]2CN1C(=O)N1Cc2c(NC(=O)c3c(F)ccc(F)c3F)n[nH]c2C1(C)C` [Example E13], the Ki worked out at 135 nM.

For the molecule `C[C@@H]1CN(C(=O)N2Cc3c(NC(=O)c4cn(C)cn4)n[nH]c3C2(C)C)[C@@H](C)CN1CC1CCOCC1` [Example E14], the Ki was found to be 156 nM.

For the molecule `CCc1nc(C)c(C(=O)Nc2n[nH]c3c2CN(C(=O)N2C[C@@H](C)N(CC4CCOCC4)C[C@@H]2C)C3(C)C)o1` [Example F1, N-(5-{[(2S,5R)-2,5-dimethyl-4-(tetrahydro-2H-pyran-4-ylmethyl)piperazin-1-yl]carbonyl}-6,6-dimethyl-1,4,5,6-tetrahydropyrrolo[3,4-c]pyrazol-3-yl)-2-ethyl-4-methyl-1,3-oxazole-5-carboxamide], the Ki is 22.4 nM.

For `COCCCN1C[C@H](C)N(C(=O)N2Cc3c(NC(=O)c4cc(C)nc(C)n4)n[nH]c3C2(C)C)C[C@H]1C` [Example F2], the Ki came to 78.4 nM.

Turning to `COCCCN1C[C@H](C)N(C(=O)N2Cc3c(NC(=O)c4cnccn4)n[nH]c3C2(C)C)C[C@H]1C` [Example F3], the Ki came to 625 nM.

As to `CCc1cc(C(=O)Nc2n[nH]c3c2CN(C(=O)N2C[C@@H](C)N(CCCOC)C[C@@H]2C)C3(C)C)n(C)n1` [Example F4], the Ki worked out at 37.3 nM.

Take `COCCCN1C[C@H](C)N(C(=O)N2Cc3c(NC(=O)c4oc(C)cc4C)n[nH]c3C2(C)C)C[C@H]1C` [Example F5]: the Ki amounted to 71.8 nM.

For `CCc1nc(C)c(C(=O)Nc2n[nH]c3c2CN(C(=O)N2C[C@@H](C)N(CCCOC)C[C@@H]2C)C3(C)C)o1` [Example F6], the Ki is 83.6 nM.

Take `COCCCN1C[C@H](C)N(C(=O)N2Cc3c(NC(=O)Cc4c(C)noc4C)n[nH]c3C2(C)C)C[C@H]1C` [Example F7]: the Ki is 67.1 nM.

In the case of `COCCCN1C[C@H](C)N(C(=O)N2Cc3c(NC(=O)c4ocnc4C)n[nH]c3C2(C)C)C[C@H]1C` [Example F8], the Ki is 95.6 nM.

For `C[C@@H]1CN(C(=O)N2Cc3c(NC(=O)c4cn(C)cn4)n[nH]c3C2(C)C)[C@@H](C)CN1CC1CCOCC1` [Example F9], the Ki stood at 62.4 nM.

On to `Cc1nc(C)c(C(=O)Nc2n[nH]c3c2CN(C(=O)N2C[C@@H](C)N(CC4CCOCC4)C[C@@H]2C)C3(C)C)s1` [Example F10], for which the Ki came out at 22.6 nM.

For the molecule `C[C@@H]1CN(C(=O)N2Cc3c(NC(=O)c4cc(C5CC5)on4)n[nH]c3C2(C)C)[C@@H](C)CN1CC1CCOCC1` [Example F11], the Ki was determined as 29.8 nM.

On to `Cc1cc(C(=O)Nc2n[nH]c3c2CN(C(=O)N2C[C@@H](C)N(CC4CCOCC4)C[C@@H]2C)C3(C)C)n(C)n1` [Example F12], for which the Ki worked out at 33 nM.

On to `Cc1cc(C(=O)Nc2n[nH]c3c2CN(C(=O)N2C[C@@H](C)N(CC4CCOCC4)C[C@@H]2C)C3(C)C)no1` [Example F13], for which the Ki was determined as 41.1 nM.

With `CCn1nc(C)cc1C(=O)Nc1n[nH]c2c1CN(C(=O)N1C[C@@H](C)N(CC3CCOCC3)C[C@@H]1C)C2(C)C` [Example F14], the Ki is 20 nM.

For the molecule `CCc1ocnc1C(=O)Nc1n[nH]c2c1CN(C(=O)N1C[C@@H](C)N(CC3CCOCC3)C[C@@H]1C)C2(C)C` [Example F15], the Ki amounted to 52.1 nM.

For `C[C@@H]1CN(C(=O)N2Cc3c(NC(=O)c4ccn(C)n4)n[nH]c3C2(C)C)[C@@H](C)CN1CC1CCOCC1` [Example F16], the Ki came out at 25.8 nM.

`C[C@@H]1CN(C(=O)N2Cc3c(NC(=O)c4cc(C5CC5)n[nH]4)n[nH]c3C2(C)C)[C@@H](C)CN1CC1CCOCC1` [Example F17]: the Ki amounted to 19.4 nM.

For `CCc1cc(C(=O)Nc2n[nH]c3c2CN(C(=O)N2C[C@@H](C)N(CC4CCOCC4)C[C@@H]2C)C3(C)C)on1` [Example F18], the Ki amounted to 32.1 nM.

Regarding `CCc1cc(C(=O)Nc2n[nH]c3c2CN(C(=O)N2C[C@@H](C)N(CC4CCOCC4)C[C@@H]2C)C3(C)C)no1` [Example F19], the Ki turned out to be 26.5 nM.

Turning to `Cc1nc(C)c(C(=O)Nc2n[nH]c3c2CN(C(=O)N2C[C@@H](C)N(CC4CCOCC4)C[C@@H]2C)C3(C)C)o1` [Example F20], the Ki stood at 19.7 nM.

Turning to `Cc1cc(C(=O)Nc2n[nH]c3c2CN(C(=O)N2C[C@@H](C)N(CC4CCOCC4)C[C@@H]2C)C3(C)C)on1` [Example F21], the Ki amounted to 38.1 nM.

As to `Cc1nonc1C(=O)Nc1n[nH]c2c1CN(C(=O)N1C[C@@H](C)N(CC3CCOCC3)C[C@@H]1C)C2(C)C` [Example F22], the Ki amounted to 47.3 nM.

Take `Cc1nc(C(=O)Nc2n[nH]c3c2CN(C(=O)N2C[C@@H](C)N(CC4CCOCC4)C[C@@H]2C)C3(C)C)c(C)o1` [Example F23]: the Ki was found to be 31.3 nM.

As to `CCCc1cc(C(=O)Nc2n[nH]c3c2CN(C(=O)N2C[C@@H](C)N(CC4CCOCC4)C[C@@H]2C)C3(C)C)no1` [Example F24], the Ki is 59.4 nM.

For the molecule `CCc1nc(C(=O)Nc2n[nH]c3c2CN(C(=O)N2C[C@@H](C)N(CC4CCOCC4)C[C@@H]2C)C3(C)C)cs1` [Example F25], the Ki was determined as 33.3 nM.

On to `CCc1ccc(C(=O)Nc2n[nH]c3c2CN(C(=O)N2C[C@@H](C)N(C4CCOCC4)C[C@@H]2C)C3(C)C)nc1` [Example F51], for which the Ki is below 10 nM.

For the molecule `C[C@@H]1CN(C(=O)N2Cc3c(NC(=O)c4ccc(N5CCOCC5)cn4)n[nH]c3C2(C)C)[C@@H](C)CN1C1CCOCC1` [Example F52], the Ki was below 10 nM.

On to `C[C@@H]1CN(C(=O)N2Cc3c(NC(=O)c4ccncn4)n[nH]c3C2(C)C)[C@@H](C)CN1C1CCOCC1` [Example F53], for which the Ki was 24 nM.

With `Cc1ccc(C(=O)Nc2n[nH]c3c2CN(C(=O)N2C[C@@H](C)N(C4CCOCC4)C[C@@H]2C)C3(C)C)nc1` [Example F54], the Ki worked out at 12.2 nM.

Consider `COc1ccc(C(=O)Nc2n[nH]c3c2CN(C(=O)N2C[C@@H](C)N(C4CCOCC4)C[C@@H]2C)C3(C)C)nc1` [Example F55], for which the Ki was below 10 nM.

For the molecule `C[C@@H]1CN(C(=O)N2Cc3c(NC(=O)c4ccc(Cl)cn4)n[nH]c3C2(C)C)[C@@H](C)CN1C1CCOCC1` [Example F56], the Ki is below 10 nM.

In the case of `C[C@@H]1CN(C(=O)N2Cc3c(NC(=O)c4cnccn4)n[nH]c3C2(C)C)[C@@H](C)CN1CC1CCOCC1` [Example F57], the Ki is 52.7 nM.

For `C[C@@H]1CN(C(=O)N2Cc3c(NC(=O)c4ncccn4)n[nH]c3C2(C)C)[C@@H](C)CN1CC1CCOCC1` [Example F58], the Ki worked out at 133 nM.

Turning to `Cc1noc(C)c1CC(=O)Nc1n[nH]c2c1CN(C(=O)N1C[C@@H](C)N(CC3CCOCC3)C[C@@H]1C)C2(C)C` [Example F59], the Ki was 20 nM.

Take `C[C@@H]1CN(C(=O)N2Cc3c(NC(=O)c4ccc(C(F)(F)F)cn4)n[nH]c3C2(C)C)[C@@H](C)CN1CC1CCOCC1` [Example F60]: the Ki was determined as 4.17 nM.

As for `C[C@@H]1CN(C(=O)N2Cc3c(NC(=O)c4ccc(C#N)cn4)n[nH]c3C2(C)C)[C@@H](C)CN1C1CCOCC1` [Example G1, 5-cyano-N-(5-{[(2S,5R)-2,5-dimethyl-4-(tetrahydro-2H-pyran-4-yl)piperazin-1-yl]carbonyl}-6,6-dimethyl-1,4,5,6-tetrahydropyrrolo[3,4-c]pyrazol-3-yl)pyridine-2-carboxamide], the Ki is below 10 nM.

As for `C[C@@H]1CN(C(=O)N2Cc3c(NC(=O)c4ccc(C#N)cn4)n[nH]c3C2(C)C)[C@@H](C)CN1C` [Example G2], the Ki was 28.7 nM.

Regarding `C[C@@H]1CN(C(=O)N2Cc3c(NC(=O)c4ccc(C#N)cn4)n[nH]c3C2(C)C)[C@@H](C)CN1CC1CCOCC1` [Example G3], the Ki was below 10 nM.
